Laboratory results reported in US11883395B2 (priority 2020, dated 2024).

System: human coronavirus (hCOV)-OC43
Assay type: cell-based

O=C1O[C@H]2[C@@H]3OC(=O)c4cc(O)c(O)c(O)c4-c4c(O)c(O)c5oc(=O)c6c(c(O)c(O)c7oc(=O)c4c5c76)-c4c(cc(O)c(O)c4O)C(=O)OC[C@H]3OC(O)[C@@H]2OC(=O)c2cc(O)c(O)c(O)c2-c2c1cc(O)c(O)c2O (mixture of isomers) [punicalagin]
significantly decreased: hCoV-OC43 envelope protein mRNA level | hCoV-OC43 membrane protein mRNA level | hCoV-OC43 spike protein mRNA level

O=C(C1CC1)N1CCN(Cn2sc3ccccc3c2=O)CC1 [LOC13, 2-[[4-(cyclopropylcarbonyl)-1-piperazinyl]methyl]-1,2-benzisothiazol-3(2H)-one]
significantly decreased: hCoV-OC43 envelope protein mRNA level | hCoV-OC43 membrane protein mRNA level | hCoV-OC43 spike protein mRNA level
